Assay results reported in PubChem BioAssay AID1963965 (Molecular Pharmacology Branch, DTP, NCI, 2024).

System: 996289-038-R-J1-PDC spheroid viability
Assay: Anticancer human tumor 996289-038-R-J1-PDC patient-derived colon adenocarcinoma cell line growth inhibition [PI3K]
Conditions: spheroids with HUVEC and MSC; for viability, T/C: stronger effect = lower value
How it was run: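 Three cell types, namely tumor cells, endothelial cells and mesenchymal stem cells, formed each spheroid. Combinations with four PI3K inhibitors were screened at clinically achievable concentrations decreasing by half-log, and spheroid viability was recorded.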

[1] = curve of first compound, second compound 0.00316 µM
[2] = curve of first compound, second compound 0.01 µM
[3] = curve of first compound, second compound 0.0316 µM
[4] = curve of first compound, second compound 0.1 µM
[5] = curve of first compound, second compound 0.316 µM
[6] = curve of first compound, second compound 1 µM
[7] = second compound 0.00316 µM, first compound 0.0316 µM
[8] = second compound 0.00316 µM, first compound 0.1 µM
[9] = second compound 0.00316 µM, first compound 0.316 µM
[10] = second compound 0.00316 µM, first compound 1 µM
[11] = second compound 0.00316 µM, first compound 3.16 µM
[12] = second compound 0.00316 µM, first compound 10 µM
[13] = second compound 0.01 µM, first compound 0.0316 µM
[14] = second compound 0.01 µM, first compound 0.1 µM
[15] = second compound 0.01 µM, first compound 0.316 µM
[16] = second compound 0.01 µM, first compound 1 µM
[17] = second compound 0.01 µM, first compound 3.16 µM
[18] = second compound 0.01 µM, first compound 10 µM
[19] = second compound 0.0316 µM, first compound 0.0316 µM
[20] = second compound 0.0316 µM, first compound 0.1 µM
[21] = second compound 0.0316 µM, first compound 0.316 µM
[22] = second compound 0.0316 µM, first compound 1 µM
[23] = second compound 0.0316 µM, first compound 3.16 µM
[24] = second compound 0.0316 µM, first compound 10 µM
[25] = second compound 0.1 µM, first compound 0.0316 µM
[26] = second compound 0.1 µM, first compound 0.1 µM
[27] = second compound 0.1 µM, first compound 0.316 µM
[28] = second compound 0.1 µM, first compound 1 µM
[29] = second compound 0.1 µM, first compound 3.16 µM
[30] = second compound 0.1 µM, first compound 10 µM
[31] = second compound 0.316 µM, first compound 0.0316 µM
[32] = second compound 0.316 µM, first compound 0.1 µM
[33] = second compound 0.316 µM, first compound 0.316 µM
[34] = second compound 0.316 µM, first compound 1 µM
[35] = second compound 0.316 µM, first compound 3.16 µM
[36] = second compound 0.316 µM, first compound 10 µM
[37] = second compound 1 µM, first compound 0.0316 µM
[38] = second compound 1 µM, first compound 0.1 µM
[39] = second compound 1 µM, first compound 0.316 µM
[40] = second compound 1 µM, first compound 1 µM
[41] = second compound 1 µM, first compound 3.16 µM
[42] = second compound 1 µM, first compound 10 µM
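Note: spheroids exposed to compounds for seven days before viability read.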
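Throughout, for viability, T/C: luminescence used as a proxy for viable cell amount; percent viability relative to DMSO vehicle control as 100%.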

Question: Cn1ncc(Cl)c1-c1cc(C(=O)NC(CN)Cc2cccc(F)c2)sc1Cl (stereo not drawn) + COc1c(OCCCN2CCOCC2)ccc2c3n(c(=NC(=O)c4cnc(N)nc4)nc12)CCN3 was tested. Which IC50 [1] did it give?
Answer: 5.06 µM

Question: What about the IC50 [2] of the same compound?
Answer: 2.84 µM

Question: What about the IC50 [3] of the same compound?
Answer: 1.73 µM

Question: What about the IC50 [4] of the same compound?
Answer: 0.212 µM

Question: And the IC50 [5]?
Answer: < 0.0316 µM

Question: What about the IC50 [6] of the same compound?
Answer: < 0.0316 µM

Question: And the viability, T/C [7]?
Answer: 99.4%

Question: And the viability, T/C [8]?
Answer: 93.6%

Question: What about the viability, T/C [9] of the same compound?
Answer: 82%

Question: And the viability, T/C [10]?
Answer: 73.2%

Question: What about the viability, T/C [11] of the same compound?
Answer: 56.8%

Question: And the viability, T/C [12]?
Answer: 39.7%

Question: What about the viability, T/C [13] of the same compound?
Answer: 92.4%

Question: And the viability, T/C [14]?
Answer: 87.1%

Question: What about the viability, T/C [15] of the same compound?
Answer: 74.2%

Question: What about the viability, T/C [16] of the same compound?
Answer: 59.9%

Question: What about the viability, T/C [17] of the same compound?
Answer: 54.8%

Question: What about the viability, T/C [18] of the same compound?
Answer: 26.7%

Question: What about the viability, T/C [19] of the same compound?
Answer: 81.6%

Question: And the viability, T/C [20]?
Answer: 66.5%

Question: What about the viability, T/C [21] of the same compound?
Answer: 70.9%

Question: And the viability, T/C [22]?
Answer: 62%

Question: What about the viability, T/C [23] of the same compound?
Answer: 37.6%

Question: What about the viability, T/C [24] of the same compound?
Answer: 23.7%

Question: And the viability, T/C [25]?
Answer: 60.3%

Question: And the viability, T/C [26]?
Answer: 59.4%

Question: What about the viability, T/C [27] of the same compound?
Answer: 44.6%

Question: And the viability, T/C [28]?
Answer: 37.3%

Question: And the viability, T/C [29]?
Answer: 31.3%

Question: And the viability, T/C [30]?
Answer: 20.5%

Question: And the viability, T/C [31]?
Answer: 34.8%

Question: And the viability, T/C [32]?
Answer: 33%

Question: And the viability, T/C [33]?
Answer: 32.8%

Question: What about the viability, T/C [34] of the same compound?
Answer: 32.3%

Question: What about the viability, T/C [35] of the same compound?
Answer: 30.5%

Question: And the viability, T/C [36]?
Answer: 15.1%

Question: What about the viability, T/C [37] of the same compound?
Answer: 18.3%

Question: And the viability, T/C [38]?
Answer: 19.7%

Question: What about the viability, T/C [39] of the same compound?
Answer: 17%

Question: And the viability, T/C [40]?
Answer: 23.1%

Question: And the viability, T/C [41]?
Answer: 20.1%

Question: And the viability, T/C [42]?
Answer: 11%

Question: What does the source list for C[C@@H](NC(=O)c1ncnc(N)c1Cl)c1ncc(C(=O)Nc2cc(C(F)(F)F)c(Cl)cn2)s1 + COc1c(OCCCN2CCOCC2)ccc2c3n(c(=NC(=O)c4cnc(N)nc4)nc12)CCN3?
Answer: IC50 [1]: > 10 µM; IC50 [2]: > 10 µM; IC50 [3]: > 10 µM; IC50 [4]: > 10 µM; IC50 [5]: < 0.0316 µM; IC50 [6]: < 0.0316 µM; viability, T/C [7]: 89.7%; viability, T/C [8]: 88%; viability, T/C [9]: 95.1%; viability, T/C [10]: 112%; viability, T/C [11]: 131%; viability, T/C [12]: 136%; viability, T/C [13]: 96.6%; viability, T/C [14]: 87%; viability, T/C [15]: 96.2%; viability, T/C [16]: 116%; viability, T/C [17]: 98%; viability, T/C [18]: 109%; viability, T/C [19]: 94.3%; viability, T/C [20]: 78.9%; viability, T/C [21]: 86.7%; viability, T/C [22]: 81.9%; viability, T/C [23]: 92.7%; viability, T/C [24]: 77.8%; viability, T/C [25]: 68.7%; viability, T/C [26]: 57.1%; viability, T/C [27]: 69.2%; viability, T/C [28]: 67.7%; viability, T/C [29]: 71.3%; viability, T/C [30]: 58.7%; viability, T/C [31]: 42%; viability, T/C [32]: 36.2%; viability, T/C [33]: 35.7%; viability, T/C [34]: 52.9%; viability, T/C [35]: 43.3%; viability, T/C [36]: 37.3%; viability, T/C [37]: 22.3%; viability, T/C [38]: 16.1%; viability, T/C [39]: 19.3%; viability, T/C [40]: 21.7%; viability, T/C [41]: 29%; viability, T/C [42]: 22.6%

Question: For CC1(C)CCC(Nc2ncc(C(F)(F)F)c(-c3c[nH]c4c(P(C)(C)=O)c(C#N)ccc34)n2)CN1 (stereo not drawn), which viability, T/C (compound 0.1 µM) is on record?
Answer: 86.5% [middle of 4 runs]

Question: What about the viability, T/C (compound 0.316 µM) of the same compound?
Answer: 86% [middle of 4 runs]

Question: And the viability, T/C (compound 1 µM)?
Answer: 88.9% [middle of 4 runs]

Question: What about the viability, T/C (compound 3.16 µM) of the same compound?
Answer: 91.5% [middle of 4 runs]

Question: And the viability, T/C (compound 10 µM)?
Answer: 26.9% [middle of 4 runs]

Question: What about the IC50 (curve of compound) of the same compound?
Answer: 6.64 µM [middle of 4 runs]

Question: For Cn1nccc1Nc1nccc(-c2ccn(C(CO)c3ccc(Cl)c(F)c3)c(=O)c2)n1 (stereo not drawn) + CC(Nc1ccc2c(c1)OCCn1cc(N3C(=O)OCC3C(F)F)nc1-2)C(N)=O, which IC50 [1] is on record?
Answer: > 10 µM

Question: What about the IC50 [2] of the same compound?
Answer: > 10 µM

Question: And the IC50 [3]?
Answer: 9.77 µM

Question: What about the IC50 [4] of the same compound?
Answer: 9.01 µM

Question: What about the IC50 [5] of the same compound?
Answer: 4.82 µM

Question: What about the IC50 [6] of the same compound?
Answer: 2.25 µM

Question: What about the viability, T/C [7] of the same compound?
Answer: 104%

Question: And the viability, T/C [8]?
Answer: 98%

Question: And the viability, T/C [9]?
Answer: 117%

Question: What about the viability, T/C [10] of the same compound?
Answer: 106%

Question: What about the viability, T/C [11] of the same compound?
Answer: 94.4%

Question: And the viability, T/C [12]?
Answer: 58.4%

Question: And the viability, T/C [13]?
Answer: 104%

Question: And the viability, T/C [14]?
Answer: 95.3%

Question: What about the viability, T/C [15] of the same compound?
Answer: 105%

Question: And the viability, T/C [16]?
Answer: 103%

Question: And the viability, T/C [17]?
Answer: 70.8%

Question: What about the viability, T/C [18] of the same compound?
Answer: 53.4%

Question: What about the viability, T/C [19] of the same compound?
Answer: 98.9%

Question: And the viability, T/C [20]?
Answer: 110%

Question: What about the viability, T/C [21] of the same compound?
Answer: 86.8%

Question: And the viability, T/C [22]?
Answer: 93.6%

Question: And the viability, T/C [23]?
Answer: 67.8%

Question: What about the viability, T/C [24] of the same compound?
Answer: 50%

Question: And the viability, T/C [25]?
Answer: 87.9%

Question: And the viability, T/C [26]?
Answer: 89.6%

Question: And the viability, T/C [27]?
Answer: 97.2%

Question: What about the viability, T/C [28] of the same compound?
Answer: 81%

Question: And the viability, T/C [29]?
Answer: 78.7%

Question: What about the viability, T/C [30] of the same compound?
Answer: 46.8%

Question: What about the viability, T/C [31] of the same compound?
Answer: 79.5%

Question: And the viability, T/C [32]?
Answer: 74.5%

Question: And the viability, T/C [33]?
Answer: 61.4%

Question: What about the viability, T/C [34] of the same compound?
Answer: 67.6%

Question: And the viability, T/C [35]?
Answer: 58.2%

Question: What about the viability, T/C [36] of the same compound?
Answer: 39.5%

Question: And the viability, T/C [37]?
Answer: 56.2%

Question: And the viability, T/C [38]?
Answer: 64.4%

Question: And the viability, T/C [39]?
Answer: 53.7%

Question: What about the viability, T/C [40] of the same compound?
Answer: 73.3%

Question: What about the viability, T/C [41] of the same compound?
Answer: 45%

Question: What about the viability, T/C [42] of the same compound?
Answer: 30.2%

Question: For Cc1nc(NC(=O)N2CCCC2C(N)=O)sc1-c1ccnc(C(C)(C)C(F)(F)F)c1 (stereo not drawn), which viability, T/C (compound 0.0316 µM) is on record?
Answer: 99.9% [middle of 8 runs]

Question: And the viability, T/C (compound 0.1 µM)?
Answer: 94.7% [middle of 8 runs]

Question: What about the viability, T/C (compound 0.316 µM) of the same compound?
Answer: 85.8% [middle of 8 runs]

Question: And the viability, T/C (compound 1 µM)?
Answer: 73.9% [middle of 8 runs]

Question: And the viability, T/C (compound 3.16 µM)?
Answer: 61.8% [middle of 8 runs]

Question: And the viability, T/C (compound 10 µM)?
Answer: 52.6% [middle of 8 runs]
